Results from article PMC6687188, “Novel lactate dehydrogenase inhibitors with in vivo efficacy against Cryptosporidium parvum” (PLoS Pathogens, 2019).

Target: recombinant CpLDH protein (Cryptosporidium parvum, UniProt Q9GT92, F198L/K295E/R251K)

| Structure (SMILES) | MEAN CpLDH INHIBITION (%) |
| --- | --- |
| O=c1ccc2ccc(CBr)cc2o1 [NSC99027] | -71.89% |
| Cn1c(=O)[nH]c2nncnc2c1=O [NSC99733] | -38.11% |
| Cl.Nc1ccc(OCCCc2c(-c3ccccc3)nc(N)[nH]c2=O)cc1 [NSC100856] | -59.57% |
| Nc1ncnc2c([C@@H]3O[C@H](CO)[C@@H](O)[C@H]3O)[nH]nc12 [NSC102811] | -35.09% |
| COC(=O)[C@@H]1c2cc3c(c(O)c2[C@@H](OC)C[C@@]1(C)O)C(=O)c1c(O)cc2c(c1C3=O)O[C@H]1O[C@@]2(C)[C@H](O)[C@@H](N(C)C)[C@@H]1O [NSC102815] | -3.42% |
| CCC1CN2CCc3cc(OC)c(OC)cc3C2CC1CC1c2cc(OC)c(OC)cc2CCN1C(=O)C1CCCN1C(=O)OCc1ccccc1 (stereo not shown) [NSC103248] | -105.50% |
| O=C1OC(c2ccccc2)=N/C1=C\c1ccc(N(CCCl)CCCl)cc1 [NSC104117] | -18.47% |
| CC1(C)N=C(N)N=C(N)N1c1ccc(CCCCc2ccc(Cl)cc2Cl)cc1 [NSC104129] | -53.74% |
| COc1ccc(C(=O)/C(Br)=C\C(=O)[O-])cc1.[Na+] [NSC104801] | -32.70% |
| NC1=C(Br)C(=O)c2ncccc2C1=O [NSC105808] | -67.00% |
| Cc1ccc(N=Nc2c(O)ccc3ccccc23)cc1 [NSC106296] | -44.71% |
| CO[C@H]1Nc2c(ccc(C)c2O)C(=O)N2C=C(/C=C/C(N)=O)C[C@@H]12 [NSC106408] | -29.99% |
| CC(C)CCCC(=O)CCCCCCC(=O)CCN(O)C(=O)C(N)CO.O=S(=O)(O)O (stereo not shown) [NSC106997] | -28.98% |
| O=C1C=C2C=CC3CC2(O1)C1CCCCN31 (stereo not shown) [NSC107415] | -39.15% |
| CCC1CN2CCc3cc(OC)c(OC)cc3C2CC1CC1c2cc(OC)c(OC)cc2CCN1C(=O)C(Cc1c[nH]c2ccccc12)NC(=O)OC(C)(C)C (stereo not shown) [NSC109350] | -1.18% |
| CN1CCCC2C(c3ccccc3)C(C3=NCCCC3)C(c3ccccc3)CC21.Cl (stereo not shown) [NSC109444] | -58.72% |
| N=C1C=C(N)C(=O)c2[nH]c(=O)ccc21 [NSC111041] | -37.64% |
| CC(C)(O)CCC(O)C(C)(O)C1CCC2(O)C3=CC(=O)C4(O)CC(O)C(O)CC4(C)C3CCC12C.CC(C)(O)CCC(O)C(C)(O)C1CCC2(O)C3=CC(=O)C4CC(O)C(O)CC4(C)C3CCC12C (stereo not shown) [NSC115493] | -100.16% |
| Cc1ccc([S+](c2ccccc2)c2cc(C)ccc2C)cc1.O=C(OC(C(=O)[O-])C(OC(=O)c1ccccc1)C(=O)O)c1ccccc1 (stereo not shown) [NSC116693] | -151.85% |
| Cc1ccc2[c](c1)[Sn]([c]1ccccc1)([c]1ccccc1)[c]1cc(C)ccc1N2C [NSC118030] | -56.74% |
| Cc1ccc(C)c2c(N=Nc3ccccc3[N+](=O)[O-])c(O)[nH]c12 [NSC118732] | -7.91% |
| Cc1ccc(Cl)c2c(N=Nc3ccccc3[N+](=O)[O-])c(O)[nH]c12 [NSC118735] | -15.17% |
| CNc1nc(N(C)C)nc(N(C)C)n1 [NSC118742] | -28.34% |
| S=C=NCc1ccccc1 [NSC118976] | -18.30% |
| Cc1c2ccncc2c(C)c2c1sc1ccccc12 [NSC119686] | -46.09% |
| N.N.[Cl][Pt][Cl] [NSC119875] | -45.38% |
| CCCNC1=C(C)C(=O)C2=C(C1=O)[C@H](COC(N)=O)[C@]1(OC)[C@@H]3N[C@@H]3CN21 [NSC123115] | -0.99% |
| COc1ccc2c(O)c3[n+](cc2c1OC)CCc1cc2c(cc1-3)OCO2 [NSC123390] | -31.27% |
